Laboratory results taken from PubChem BioAssay (NCI).
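Protocol summary: plate cells (96-well), add compound at 5 concentrations, incubate 48 h, interpolate endpoints linearly. Abbreviation: GI50, concentration required for 50% inhibition of growth. At the TGI there is no net growth.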

Assays:
Test in all cases: NCI anticancer screen, dose series, 48 h
K-562 leukemia = system: K-562 leukemia
MALME-3M melanoma = system: MALME-3M melanoma
TK-10 renal = system: TK-10 renal
SF-268 CNS = system: SF-268 CNS
UO-31 renal = system: UO-31 renal
NCI-H522 lung = system: NCI-H522 lung
PC-3 prostate = system: PC-3 prostate
SNB-75 CNS = system: SNB-75 CNS
UACC-257 melanoma = system: UACC-257 melanoma
SN12C renal = system: SN12C renal
HCT-116 colon = system: HCT-116 colon
OVCAR-8 ovarian = system: OVCAR-8 ovarian
SF-295 CNS = system: SF-295 CNS
KM12 colon = system: KM12 colon
DU-145 prostate = system: DU-145 prostate
SK-OV-3 ovarian = system: SK-OV-3 ovarian
NCI-H23 lung = system: NCI-H23 lung
RPMI-8226 leukemia = system: RPMI-8226 leukemia
T-47D breast = system: T-47D breast
SW-620 colon = system: SW-620 colon
RXF 393 renal = system: RXF 393 renal
NCI-H460 lung = system: NCI-H460 lung
SF-539 CNS = system: SF-539 CNS
OVCAR-5 ovarian = system: OVCAR-5 ovarian
HT29 colon = system: HT29 colon
OVCAR-4 ovarian = system: OVCAR-4 ovarian
HOP-62 NSCLC = system: HOP-62 NSCLC
MDA-MB-435 = system: MDA-MB-435
NCI-H226 lung = system: NCI-H226 lung
IGROV1 ovarian = system: IGROV1 ovarian
A498 renal = system: A498 renal
HS 578T breast = system: HS 578T breast
SK-MEL-2 melanoma = system: SK-MEL-2 melanoma
CCRF-CEM leukemia = system: CCRF-CEM leukemia
OVCAR-3 ovarian = system: OVCAR-3 ovarian
UACC-62 melanoma = system: UACC-62 melanoma
MOLT-4 leukemia = system: MOLT-4 leukemia
SK-MEL-28 melanoma = system: SK-MEL-28 melanoma
HOP-92 NSCLC = system: HOP-92 NSCLC
LOX IMVI melanoma = system: LOX IMVI melanoma
SNB-19 CNS = system: SNB-19 CNS
BT-549 breast = system: BT-549 breast
U251 CNS = system: U251 CNS
M14 melanoma = system: M14 melanoma
HCC-2998 colon = system: HCC-2998 colon
HL-60(TB) leukemia = system: HL-60(TB) leukemia
SK-MEL-5 melanoma = system: SK-MEL-5 melanoma
MDA-MB-231 breast = system: MDA-MB-231 breast
CAKI-1 renal = system: CAKI-1 renal
HCT-15 colon = system: HCT-15 colon
SR leukemia = system: SR leukemia
COLO 205 colon = system: COLO 205 colon
A549 NSCLC = system: A549 NSCLC
NCI/ADR-RES ovarian = system: NCI/ADR-RES ovarian
786-0 renal = system: 786-0 renal
EKVX NSCLC = system: EKVX NSCLC
MCF7 breast = system: MCF7 breast
ACHN renal = system: ACHN renal

Cc1cc(O)cc(C)c1/C=C/c1cncc(C(N)=O)c1
GI50 (K-562 leukemia): 1.06 µM | TGI (K-562 leukemia): > 25 µM | GI50 (MALME-3M melanoma): 1.64 µM | TGI (MALME-3M melanoma): 24.4 µM | GI50 (TK-10 renal): 5.99 µM | TGI (TK-10 renal): > 25 µM | GI50 (SF-268 CNS): 3.99 µM | TGI (SF-268 CNS): > 25 µM | GI50 (UO-31 renal): 5.58 µM | TGI (UO-31 renal): > 25 µM | GI50 (NCI-H522 lung): 0.779 µM | TGI (NCI-H522 lung): 3.84 µM | GI50 (PC-3 prostate): 5.09 µM | TGI (PC-3 prostate): > 25 µM | GI50 (SNB-75 CNS): 2.81 µM | TGI (SNB-75 CNS): > 18.2 µM | GI50 (UACC-257 melanoma): 3.37 µM | TGI (UACC-257 melanoma): > 25 µM | GI50 (SN12C renal): 2.92 µM | TGI (SN12C renal): > 25 µM | GI50 (HCT-116 colon): 1.34 µM | TGI (HCT-116 colon): > 25 µM | GI50 (OVCAR-8 ovarian): 4.15 µM | TGI (OVCAR-8 ovarian): > 25 µM | GI50 (SF-295 CNS): 2.9 µM | TGI (SF-295 CNS): > 25 µM | GI50 (KM12 colon): 1.25 µM | TGI (KM12 colon): > 25 µM | GI50 (DU-145 prostate): 5.15 µM | TGI (DU-145 prostate): > 25 µM | GI50 (SK-OV-3 ovarian): 3.66 µM | TGI (SK-OV-3 ovarian): > 17.6 µM | GI50 (NCI-H23 lung): 7.24 µM | TGI (NCI-H23 lung): > 25 µM | GI50 (RPMI-8226 leukemia): 7.91 µM | TGI (RPMI-8226 leukemia): > 25 µM | GI50 (T-47D breast): 1.8 µM | TGI (T-47D breast): > 25 µM | GI50 (SW-620 colon): 1.4 µM | TGI (SW-620 colon): > 25 µM | GI50 (RXF 393 renal): 2.36 µM | TGI (RXF 393 renal): 13 µM | GI50 (NCI-H460 lung): 1.84 µM | TGI (NCI-H460 lung): > 25 µM | GI50 (SF-539 CNS): 1.87 µM | TGI (SF-539 CNS): 16.5 µM | GI50 (OVCAR-5 ovarian): 12.1 µM | TGI (OVCAR-5 ovarian): > 25 µM | GI50 (HT29 colon): 6.9 µM | TGI (HT29 colon): > 23.4 µM | GI50 (OVCAR-4 ovarian): 14.5 µM | TGI (OVCAR-4 ovarian): > 25 µM | GI50 (HOP-62 NSCLC): 2.8 µM | TGI (HOP-62 NSCLC): > 25 µM | GI50 (MDA-MB-435): 0.538 µM | TGI (MDA-MB-435): 1.77 µM | GI50 (NCI-H226 lung): > 15.6 µM | TGI (NCI-H226 lung): > 25 µM | GI50 (IGROV1 ovarian): 2.18 µM | TGI (IGROV1 ovarian): > 25 µM | GI50 (A498 renal): 1.65 µM | TGI (A498 renal): 17.4 µM | GI50 (HS 578T breast): 1.72 µM | TGI (HS 578T breast): 11.2 µM | GI50 (SK-MEL-2 melanoma): 1.25 µM | TGI (SK-MEL-2 melanoma): 14 µM | GI50 (CCRF-CEM leukemia): 2.88 µM | TGI (CCRF-CEM leukemia): > 25 µM | GI50 (OVCAR-3 ovarian): 0.885 µM | TGI (OVCAR-3 ovarian): 3.93 µM | GI50 (UACC-62 melanoma): 1.36 µM | TGI (UACC-62 melanoma): 23.1 µM | GI50 (MOLT-4 leukemia): 3.27 µM | TGI (MOLT-4 leukemia): > 25 µM | GI50 (SK-MEL-28 melanoma): 2.3 µM | TGI (SK-MEL-28 melanoma): > 25 µM | GI50 (HOP-92 NSCLC): 1.5 µM | TGI (HOP-92 NSCLC): > 14.7 µM | GI50 (LOX IMVI melanoma): 1.94 µM | TGI (LOX IMVI melanoma): > 25 µM | GI50 (SNB-19 CNS): 4.34 µM | TGI (SNB-19 CNS): > 25 µM | GI50 (BT-549 breast): 4.51 µM | TGI (BT-549 breast): > 25 µM | GI50 (U251 CNS): 1.49 µM | TGI (U251 CNS): > 25 µM | GI50 (M14 melanoma): 1.2 µM | TGI (M14 melanoma): 7.75 µM | GI50 (HCC-2998 colon): 21.9 µM | TGI (HCC-2998 colon): > 25 µM | GI50 (HL-60(TB) leukemia): 2.29 µM | TGI (HL-60(TB) leukemia): > 12.9 µM | GI50 (SK-MEL-5 melanoma): 1.11 µM | TGI (SK-MEL-5 melanoma): > 25 µM | GI50 (MDA-MB-231 breast): 2.15 µM | TGI (MDA-MB-231 breast): > 25 µM | GI50 (CAKI-1 renal): 4.24 µM | TGI (CAKI-1 renal): > 25 µM | GI50 (HCT-15 colon): 1.54 µM | TGI (HCT-15 colon): > 25 µM | GI50 (SR leukemia): 1.06 µM | TGI (SR leukemia): > 25 µM | GI50 (COLO 205 colon): 16.5 µM | TGI (COLO 205 colon): > 25 µM | GI50 (A549 NSCLC): 3.48 µM | TGI (A549 NSCLC): > 25 µM | GI50 (NCI/ADR-RES ovarian): 1.07 µM | TGI (NCI/ADR-RES ovarian): > 10.9 µM | GI50 (786-0 renal): 8.6 µM | TGI (786-0 renal): > 25 µM | GI50 (EKVX NSCLC): 7.93 µM | TGI (EKVX NSCLC): > 25 µM | GI50 (MCF7 breast): 1.2 µM | TGI (MCF7 breast): > 25 µM | GI50 (ACHN renal): 8.43 µM | TGI (ACHN renal): > 25 µM
